What was measured:
acetic acid writhing = test: Analgetic activity against chemical stimulation of acetic acid (writhing); format: in vivo, mouse (ICR female); settings: Mus musculus, po, 30 min before 0.6% acetic acid, read-out: I.R. of writhing
Description: (§1) Rate of inhibition (I.R.) (%)=(1-T/C)×100
T represents the average number of writhing of the group of mice administered with the present compound and injected with acetic acid, and C represents the average number of writhing of the group of mice only injected with acetic acid (control).

beta-lipoprotein = test: Anti-hyperlipemia activity, beta-lipoprotein in blood; format: in vivo, rabbit (Japanese white male); settings: oral, 300 mg/kg once
Experimental: (§2) Japanese white male rabbits were fed for 3 months with a solid diet containing 1% of cholesterol taken ad lib, and after confirming the raised lipid content of the serum of the rabbits, they were utilized as model animals suffering from experimental arteriosclerosis. Each of the present compounds was administered orally as a solution or dispersion in distilled water to the experimental animals of each group at a dose rate of 300 mg/kg once, and blood samples were taken at a predetermined time interval from the auricular vein of each animal. The content of cholesterol in the blood specimen was traced as the time passed by, with an enzymatic method, and the content of beta-lipoprotein in the same blood specimen was traced with a colorimetry. Each value in Table 7 is the difference between the level just before administration and the level after 3 or 6 hours of the administration.

cotton pellet granuloma = test: Anti-granuloma activity (cotton pellet); format: in vivo, rat; settings: Rattus norvegicus, po, 192 h, 7 days, read-out: I.R. against cotton pellet edema
Experimental: Following the method of Winter et al. (1963), each two cotton wool pellets, each weighing 30±1 mg, were implanted into the back of each rats of groups of rats, each group consisting of 6 animals, at the positions of mutually symmetrical concerning the median line of the rat. To these groups of the thus operated rats, the present compounds were respectively administered orally and forcibly as a solution or dispersion in distilled water for 7 continuous days, once a day at a dose of 1000 mg/kg/day. On 8th day of the implantation, the granuloma was extirpated and the dry weight of the granuloma was measured, the rate of inhibiting the proliferation of granuloma being obtained as in (5-1) being shown in Table 8.

level of blood sugar = test: Anti-hyperglycemia activity (reduction of blood sugar level); format: in vivo, rat (Wistar, streptozotocin); settings: oral, 300 mg/kg
Experimental: A group of Wistar rats to which at first streptozotocin was interperitoneally administered at a rate of 60 mg/kg and of which the positivity of glycosuria was confirmed after a week of the administration and to which regular insulin was further administered and of which the reduction of levels of glucose in urine and blood was once confirmed, however, of which hyperglycemia and hyperglycosuria were again confirmed after a few days was chosen and used as model animals of glycosuria in the following test. After orally administering each of the present compounds to the model animals at a dose of 300 mg/kg body weight, as a solution or dispersion in distilled water, the blood was collected two times, respectively after 3 and 6 hours of the administration.

Sarcoma-180 = test: Anti-tumour activity against Sarcoma-180; format: in vivo, mouse (ICR-JCL); settings: Mus musculus, Sarcoma-180, po, 600 h, 10 times every other day, tumour weight on 25th day, read-out: Antitumour activity, inhibiting rate (I.R.)
Experimental: Sarcoma-180 was transplanted into the axillary part of ICR-JCL mice at a rate of 1×10^6 cells/animal, and after 24 hours of transplantation, each of the present compounds as a solution or dispersion in sterilized physiological saline solution was orally administered to each of the transplanted mice 10 times every other day at a dose of 500 mg/kg/time. On 25th day of the transplantation, tumour node(s) were extirpated from all the mice to determine the weight of the tumour nodes.
Antitumour activity (activity of inhibiting the proliferation of the transplanted sarcoma) of each of the present compounds was derived by the following formula and shown in Table 6:
Antitumour activity (Inhibiting rate, I.R.)=(1-T/C)×100(%).
T represents the total weight of tumour nodes of the group of mice transplanted and administered with the present compound, and
C represents the total weight of tumour nodes of the group of mice transplanted, however, not administered with any agents.

in vivo = settings: mouse, in vivo, po, mice, 7 days observation, read-out: LD50, acute oral toxicity
total cholesterol = test: Anti-hyperlipemia activity, total cholesterol in blood; format: in vivo, rabbit (Japanese white male); settings: oral, 300 mg/kg once; for Reduction of cholesterol level after 3 hrs.: negative = raising
Experimental: as §2

blood pressure = test: Anti-hypertension activity (reduction of blood pressure); format: in vivo, rat (spontaneous hypertension); settings: oral, 300 mg/kg
Experimental: Rats of spontaneous hypertension were orally administered with each of the present compounds as a solution or dispersion in distilled water at a dose rate of 300 mg/kg body weight. After 3 and 6 hours of the administration, the blood pressure of each rat was determined, and the difference between the above-determined value and the value just before the administeration was used as the index of the activity of reducing the blood pressure of the compound.

[1] = tested on: pseudo-escaping reaction to tail pressure; test: Analgetic activity against mechanical stimulation of pressure; format: in vivo, mouse (ICR female); settings: oral, 1000 mg/kg
exudation = test: Anti-exudation activity (air pouch, croton oil); format: in vivo, rat; settings: Rattus norvegicus, po, 144 h, 5 days, read-out: I.R. against exudation
Experimental: Following the method of Baris et al. (1965), air was injected subcutaneously into the back of groups of rats, each group consisting of 6 animals to make an air pouch, and 0.5 ml of sesame oil containing 1% by weight of croton oil was injected into the air pouch. Each of the present compounds was orally administered forcibly to each of the groups of rats as a solution or dispersion in distilled water at a dose rate of 1000 mg/kg/day for continued five days. The amount of liquid exudated into the air pouch was measured on 6th day of the operation. The rate of inhibiting the exudation of the liquid was obtained by the same manner as in (5-2) and the results are shown also in Table 8.

carrageenin edema = test: Anti-Carrageenin edema activity; format: in vivo, rat; settings: Rattus norvegicus, po, 1000 mg/kg once, read-out: I.R. against carrageenin edema
Experimental: After orally administering each of the present compounds forcibly to each group of rats, composed of 10 animals, as a solution or dispersion in distilled water at a dose of 1000 mg/kg once, 0.1 ml of an aqueous dispersion of 1% carrageenin in aqueous physiological saline solution was injected into the foot pad of the right hind leg of the administered animal following Van Arman et al. (1963). Thereafter, the thickness of the foot pad was measured at a time interval to find the rate of inhibiting of the swelling of the foot pad according to the following formula:
as §1
T means the average volume of the foot pad of the animals administered with one of the present compounds and carrageenin, and
C means that of the animal not administered with the present compound, however, administered with carrageenin.

[2] = tested on: pyrexia (Saccharomyces cerevisiae); test: Anti-pyrexia activity (yeast-induced); format: in vivo; settings: Rattus norvegicus, oral, read-out: Rate of inhibiting pyrexia (I.R.)
Experimental: Following the method of Winter et al. (1961), an aqueous dispersion of 20% by weight of Saccharomyces cerevisiae was subcutaneously injected into groups of rats, each group consisting of 6 animals, and after 10-hour fasting, 1000 mg/kg of each of the present compounds was orally administered to the rat as a solution of dispersion in distilled water, and then the rectal temperature of the rat was measured at a predetermined interval of time to find the lowest temperature.
The anti-pyrexia activity of each compound was obtained from the following formula: […]
Anti-pyrexia activity represented by the rate of inhibition (I.R.)
C2 represents the average rectal temperature of negative control (non-treatment), not injected with the yeast and not administered with the present compound,
C1 represents the average temperature of positive control, injected with the yeast and not administered with the compound and T represents the temperature of tested animals, injected with the yeast and administered with the present compound.

Structure (SMILES) | inhibition in vivo at 1000 mg/kg (acetic acid writhing) [%] | Reduction of beta-lipoprotein level after 3 hrs. (beta-lipoprotein) [mg/dL] | Reduction of beta-lipoprotein level after 6 hrs. (beta-lipoprotein) [mg/dL] | inhibition in vivo at 1000 mg/kg/day (cotton pellet granuloma) [%] | Reduced level of blood sugar after 3 hrs. (level of blood sugar) [mg/dL] | Reduced level of blood sugar after 6 hrs. (level of blood sugar) [mg/dL] | inhibition in vivo at 500 mg/kg (Sarcoma-180) [%] | LD50 at 168 h (in vivo) [mg/kg] | Reduction of cholesterol level after 3 hrs. (total cholesterol) [mg/dL] | Reduction of cholesterol level after 6 hrs. (total cholesterol) [mg/dL] | Reduced level of blood pressure after 3 hrs. (blood pressure) [mm Hg] | Reduced level of blood pressure after 6 hrs. (blood pressure) [mm Hg] | Pseudo-escapting reaction pressure [1] [mmHg] | Pseudo-escapting reaction time [1] [s] | inhibition in vivo at 1000 mg/kg/day (exudation) [%] | inhibition in vivo at 1000 mg/kg (carrageenin edema) [%] | inhibition in vivo at 1000 mg/kg [2] [%]
NC(=O)c1ccc(NC2O[C@H](CO)[C@@H](O)[C@H](O)[C@@H]2O)cc1 (stereo partly drawn) [Compound 4, p-aminobenzoic acid amide-N-D-mannoside] | 41 | 123 | 135 | 14.9 | 110 | 116 | 42 | 13600 | 0 | 46 | 14 | 20 | 96 | 45 | 5.7 | 12.1 | 28
C[C@@H]1OC(Nc2ccc(C(N)=O)cc2)[C@H](O)[C@H](O)[C@H]1O (stereo partly drawn) [Compound 5, p-aminobenzoic acid amide-N-L-rhamnoside] | 52 | 134 | 148 | 16.8 | 91 | 128 | 39 | 10500 | -1 | 32 | 17 | 18 | 90 | 41 | 12.4 | 4.2 | 59
C[C@@H]1OC(Nc2ccccc2C(=O)Oc2ccccc2)[C@H](O)[C@H](O)[C@H]1O (stereo partly drawn) [Compound 6, phenyl o-aminobenzoate-N-L-rhamnoside] | 37 | 152 | 155 | 20.5 | 121 | 146 | 44 | > 15000 | 4 | 57 | 22 | 23 | 98 | 43 | 19 | 7.6 | 69
O=C(Oc1ccccc1)c1cccc(NC2O[C@H](CO)[C@@H](O)[C@H](O)[C@@H]2O)c1 (stereo partly drawn) [Compound 7, phenyl m-aminobenzoate-N-D-mannoside] | 46 | 141 | 150 | 25.3 | 144 | 159 | 49 | 14800 | -2 | 62 | 24 | 26 | 95 | 44 | 7.5 | 5.9 | 31
